Data as given in paper PMC9695592, “Phenotypic Evaluation of Nucleoside Analogues against Trypanosoma cruzi Infection: In Vitro and In Vivo Approaches” (Molecules, 2022).
Entries after “also recorded” stand apart in the source; their conditions may differ.

Tests used:
[1] = system: T. cruzi (Tulahuen strain) in L929; assay: Washout assay in T. cruzi-infected L929 cultures (Tulahuen strain); type: cell-based, Trypanosoma cruzi; conditions: 10 μM for seven days, then seven days drug-free medium; light microscopy
Method: To explore in vitro parasitic exhaustion, T. cruzi-infected L929 cultures were incubated for seven days with the compounds at 10 μM. Then, fresh drug-free medium was added and replaced every 48 h. After seven days of incubation, the number of released parasites into the supernatant was quantified by light microscopy.
T. cruzi-infected L929 cultures (using the Tulahuen-β gal strain) were exposed or not to 10 µM of each nucleoside derivative, and the RPMI culture medium (containing the tested compounds) replaced every 48 h. After seven days of incubation, the cultures were rinsed with 0.1 M phosphate buffered saline (PBS), and drug-free culture medium was added for another seven days of incubation, replacing the drug-free medium every 48 h. Parasites released into the supernatant of the cell cultures were quantified using light microscopy, and the parasite burden into the infected cultures was analyzed by adding the substrate CPRG (chlorophenol red ß-D-galactopyranoside) followed by spectrophotometric measurements at 570 nm. The results were expressed as percentage of reduction in parasite growth compared to untreated cells, and EC50 values were calculated. Bz was used as a positive control. The data results from two independent experiments done in at least duplicate.

[2] = system: promastigotes of Lmex^ΔNT1+TcrNT2; assay: Resazurin-based assay on Cas9^ΔNT1+TcrNT2 promastigotes; type: cell-based, Leishmania mexicana; conditions: for EC50: Leishmania mexicana, read-out: Lmex^ΔNT1+TcrNT2 EC50 (μM)
Method: (§1) Bloodstream trypomastigotes of the Y strain (DTU II) were obtained by cardiac puncture of infected Swiss Webster mice on the parasitemia peak to perform drug sensitivity assays. Trypomastigote forms of the Tulahuen-β gal strain were collected from the supernatant of previously infected L929 cell cultures (host/parasite cell ratio 10:1). The intracellular forms T. cruzi were studied by the infection of L929 and H9C2 (2D and 3D) cell cultures infected for 48 and 24 h with trypomastigotes of Tulahuen-β gal and Y strains, respectively. The Leishmania mexicana-Cas9 T7 strain (LmexCas9) was derived from L. mexicana WT promastigotes by expression of the Streptococcus pyogenes Cas9 nuclease gene ‘Cas9′ and maintained on 32 μg/mL hygromycin [51]. This strain and the derived strains Cas9^ΔNT1 and Cas9^ΔNT1+TcrNT2 were cultured in HOMEM medium supplemented with 10% of FBS and 1% Penicillin-Streptomycin antibiotic in unvented flasks at 25 °C [52]. The Cas9^ΔNT1 strain is identical to Cas9 except that the LmexNT1.1/NT1.2 locus encoding the L. mexicana adenosine/ pyrimidine transporters was excised using Cas9 [17, 40]. Cas9^ΔNT1+TcrNT2 is the further modification of that strain by the expression of the T. cruzi nucleoside transporter 2 (TcrNT2) gene in it, using the vector pNUS-HcN [53]. Appropriate antibiotics were added for the selection and maintenance of transfectants.
The EC50 values for nucleoside analogues against Leishmania mexicana promastigotes of the Cas9, Cas9^ΔNT1 and Cas9^ΔNT1+TcrNT2 strains used a resazurin-based assay, as described. Briefly, the assays were performed in standard HOMEM medium and culture conditions, in white opaque 96-well plates. For each test compound (stored as a 40 mM stock solution in 100% DMSO at −20 °C), a doubling dilution was performed over 2 rows of the plate, keeping the last well free as no-drug control with HOMEM only (23 doubling dilutions; highest concentration 100 µM). To each well, 100 µL of HOMEM containing 2 × 10^5 cells of the appropriate L. mexicana line was added, and the plates incubated for 72 h at 25 °C, followed by the addition of 20 µL of resazurin solution and further incubation for 48 h. Fluorescence was read on a FLUOstar OPTIMA plate reader (BMG Labtech, Germany), at an excitation wavelength of 544 nm and an emission wavelength of 620 nm. The EC50 values were determined by the GraphPad Prism 8.0 software using an equation for a sigmoid curve with variable slope. Pentamidine was used as positive control, and every experiment was independently performed at least 3 times independently.

[3] = system: intracellular forms of T. cruzi (Tulahuen strain); assay: Activity against intracellular forms of T. cruzi (Tulahuen-β gal strain) in L929 cultures, CPRG readout; type: cell-based; conditions: Trypanosoma cruzi, 168 h; Tulahuen strain in L929, seven days of compound incubation; 95% confidence interval in brackets
Source text: L929 cell lines were used to evaluate the effect of the nucleoside derivatives on the cellular viability of mammalian host cells and to assess their activity against intracellular forms of T. cruzi (Tulahuen strain expressing E. coli β-galactosidase gene, DTU VI) as reported. 2D and 3D culture systems of rat cardiomyoblast cell lines (H9C2(2-1)) were used to evaluate cardiotoxicity and to test the derivatives’ activity on intracellular forms (Y strain, DTU II). In all assays, the cell cultures were maintained at 37 °C under an atmosphere of 5% CO2.
as §1
In an initial step, nucleoside derivatives were assayed against intracellular forms of Tulahuen-β gal strain in L929 cell lines. Assays were performed in sterile 96-well microtiter plates with 4 × 10^3 cells/well and 4 × 10^4 parasites/well (host/parasite cell ratio 1:10). After the establishment of infection (48 h), increasing concentrations (up to 30 µM) of the compounds were added, and the cultures maintained at 37 °C for seven days. Untreated-infected controls represented 100% growth. Parasite burden was analyzed by adding the substrate CPRG (chlorophenol red ß-D-galactopyranoside) followed by measurements (spectrophotometrically) at 570 nm. The results were expressed as percentage of reduction in parasite growth compared to untreated cells, and EC50 values were calculated. Bz was used as a positive control. To investigate the effect of the compounds against intracellular forms of the Y strain, rat cardiomyoblasts (2D cultures of H9C2) were seeded in 24-well plates and, after 24 h of platting, were infected with bloodstream trypomastigotes (20 parasites per host cell). After 24 h of interaction, the infected cultures were rinsed to remove non-internalized parasites and incubated with 10 µM of the tested compounds. After seven days of treatment, the cultures were fixed, stained with Giemsa, and 200 cells were quantified by light microscopy. The results were expressed as % of reduction in parasite burden. The data results from two independent experiments performed in at least duplicate were obtained.

[4] = system: intracellular forms of T. cruzi; parameters: method as in PMID 20428688; conditions: read-out: EC90 value of Bz against the intracellular forms of T. cruzi; cited from earlier work

Row | Structure (SMILES) | parasites released into the supernatant after washout [1] | EC50 [2] | EC50 [3] | EC90 [3] | EC90 [4] | Lmex^ΔNT1+TcrNT2 Sensitization (fold) ([2]; ratio of the EC50 values of the Cas9^ΔNT1 and Cas9^ΔNT1+TcrNT2 strains)
1 | Nc1ncnc2c1c(-c1ccc(Cl)c(F)c1)cn2[C@@H]1O[C@H](CO)[C@@H](O)[C@H]1O [FH10714, 7-(3-fluoro,4-chlorophenyl)tubercidin] | sterilized the infected cultures; also recorded: cleared the parasitism; also recorded: eliminated the parasitism | > 100 µM | 470 nM | 6.19 µM |  | 
2 | Nc1ncnc2c1c(-c1ccc(F)c(F)c1)cn2[C@@H]1O[C@H](CO)[C@@H](O)[C@H]1O [FH11706, 7-(3,4-Difluorophenyl)tubercidin] |  |  | 1110 nM | > 30 µM |  | 
3 | O=C(Cn1ccnc1[N+](=O)[O-])NCc1ccccc1 [Bz, Benznidazole, reference compound] |  |  | 1970 nM | 5.54 µM | 10 µM | 
4 | Nc1ncnc2c1c(-c1ccc(Cl)c(Cl)c1)cn2[C@@H]1O[C@H](CO)C[C@H]1O [FH8513, 7-(3,4-dichlorophenyl)-3′-deoxytubercidin] |  | 31.1 ± 0.5 µM | 200 nM | 1.61 µM |  | 3.2 fold
